Experimental data taken from US12065436B2, “Cardiac sarcomere inhibitors” (Cytokinetics, Inc., priority 2018, dated 2024).

Target: bovine cardiac myofibrils (full-length cardiac myosin ATPase in the native sarcomere) (Bos taurus (Bovine), UniProt Q9BE39)
Assay: Skinned bovine cardiac myofibril ATPase assay (PK/LDH-coupled)
Assay type: biochemical
Details: Ca2+ activating to 75% of maximal rate; for CDMF75 IC15: concentration giving 15% inhibition; for IC50: read-out: CDMF75 IC50
Procedure, shortened: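 Inhibition of steady-state ATPase read at 340 nm through a PK/LDH-coupled NADH system (0.5 mM NADH, 1.5 mM PEP). Detergent-skinned bovine cardiac myofibrils, 1 mg/mL, were tested at pH 6.8 in PIPES/MgCl2 with 50 μM ATP and calcium adjusted to give pCa50 or pCa75 activation.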

bovine cardiac myofibrils (full-length cardiac myosin ATPase in the native sarcomere), sequence (Q9BE39 whole entry): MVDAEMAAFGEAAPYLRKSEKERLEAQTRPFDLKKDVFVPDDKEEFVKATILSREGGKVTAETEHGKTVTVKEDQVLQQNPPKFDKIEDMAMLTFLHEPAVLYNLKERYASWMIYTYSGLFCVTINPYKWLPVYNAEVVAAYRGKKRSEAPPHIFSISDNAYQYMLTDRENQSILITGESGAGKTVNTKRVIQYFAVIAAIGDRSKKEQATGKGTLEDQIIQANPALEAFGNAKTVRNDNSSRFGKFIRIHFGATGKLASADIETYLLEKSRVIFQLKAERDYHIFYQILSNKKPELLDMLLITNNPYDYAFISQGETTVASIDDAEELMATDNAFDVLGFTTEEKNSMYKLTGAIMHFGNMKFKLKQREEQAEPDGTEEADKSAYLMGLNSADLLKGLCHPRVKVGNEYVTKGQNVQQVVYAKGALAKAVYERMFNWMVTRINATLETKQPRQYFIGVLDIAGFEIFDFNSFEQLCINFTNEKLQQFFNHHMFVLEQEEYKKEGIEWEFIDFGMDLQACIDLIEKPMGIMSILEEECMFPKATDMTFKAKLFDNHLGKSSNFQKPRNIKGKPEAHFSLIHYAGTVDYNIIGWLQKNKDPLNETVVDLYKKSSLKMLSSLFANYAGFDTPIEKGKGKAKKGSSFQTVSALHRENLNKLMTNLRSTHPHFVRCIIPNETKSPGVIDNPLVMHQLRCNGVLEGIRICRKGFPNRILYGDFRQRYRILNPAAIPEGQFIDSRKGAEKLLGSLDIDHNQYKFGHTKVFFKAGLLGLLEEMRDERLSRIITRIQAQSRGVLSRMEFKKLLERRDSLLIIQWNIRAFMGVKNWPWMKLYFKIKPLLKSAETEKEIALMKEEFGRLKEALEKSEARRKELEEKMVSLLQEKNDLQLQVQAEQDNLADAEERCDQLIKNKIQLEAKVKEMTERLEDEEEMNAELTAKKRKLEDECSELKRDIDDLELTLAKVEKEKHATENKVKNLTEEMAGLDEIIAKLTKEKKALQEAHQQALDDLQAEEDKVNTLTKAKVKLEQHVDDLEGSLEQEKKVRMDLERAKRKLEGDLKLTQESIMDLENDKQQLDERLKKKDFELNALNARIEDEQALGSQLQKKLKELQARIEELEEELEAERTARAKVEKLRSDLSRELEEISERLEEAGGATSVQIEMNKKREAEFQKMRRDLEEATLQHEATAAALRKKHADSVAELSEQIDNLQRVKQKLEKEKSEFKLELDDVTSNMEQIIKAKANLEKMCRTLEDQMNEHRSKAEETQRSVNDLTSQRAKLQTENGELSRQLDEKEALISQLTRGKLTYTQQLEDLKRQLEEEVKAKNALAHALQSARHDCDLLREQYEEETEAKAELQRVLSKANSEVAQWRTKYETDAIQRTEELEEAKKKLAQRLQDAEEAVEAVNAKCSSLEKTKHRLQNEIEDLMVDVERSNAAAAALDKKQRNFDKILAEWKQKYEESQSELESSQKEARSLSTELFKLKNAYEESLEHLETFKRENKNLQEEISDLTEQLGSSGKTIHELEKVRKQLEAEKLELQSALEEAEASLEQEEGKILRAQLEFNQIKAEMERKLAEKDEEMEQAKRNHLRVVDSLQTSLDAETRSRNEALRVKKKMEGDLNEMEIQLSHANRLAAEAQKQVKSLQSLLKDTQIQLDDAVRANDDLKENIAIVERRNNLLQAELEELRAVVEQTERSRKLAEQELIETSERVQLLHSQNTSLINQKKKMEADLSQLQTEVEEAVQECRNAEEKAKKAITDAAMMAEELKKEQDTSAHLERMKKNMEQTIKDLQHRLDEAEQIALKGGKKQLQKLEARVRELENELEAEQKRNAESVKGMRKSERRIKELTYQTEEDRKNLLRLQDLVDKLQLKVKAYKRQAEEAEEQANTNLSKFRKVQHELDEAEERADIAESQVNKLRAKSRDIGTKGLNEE
bovine cardiac myofibrils (full-length cardiac myosin ATPase in the native sarcomere), sequence (P85100 whole entry partner): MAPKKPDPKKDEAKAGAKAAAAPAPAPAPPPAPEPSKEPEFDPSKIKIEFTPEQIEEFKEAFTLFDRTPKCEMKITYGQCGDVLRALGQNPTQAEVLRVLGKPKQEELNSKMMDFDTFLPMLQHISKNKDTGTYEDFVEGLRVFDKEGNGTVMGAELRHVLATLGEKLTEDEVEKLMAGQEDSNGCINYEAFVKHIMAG
bovine cardiac myofibrils (full-length cardiac myosin ATPase in the native sarcomere), sequence (Q3SZE5 whole entry partner): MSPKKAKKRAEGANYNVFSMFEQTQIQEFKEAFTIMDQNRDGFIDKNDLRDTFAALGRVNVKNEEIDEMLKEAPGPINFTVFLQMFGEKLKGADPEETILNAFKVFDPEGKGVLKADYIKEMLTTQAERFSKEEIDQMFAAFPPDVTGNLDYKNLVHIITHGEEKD

Cc1nc(-c2ccc3c(c2)OC[C@H]3NC(=O)c2cc(CO)ccn2)no1 [Compound 718, (S)-4-(hydroxymethyl)-N-(6-(5-methyl-1,2,4-oxadiazol-3-yl)-2,3-dihydrobenzofuran-3-yl)picolinamide]
CDMF75 IC15: 1.1 µM
IC50: 5.2 µM

Cc1ccnc(-c2ccc3c(c2)CC[C@H]3NC(=O)c2ccnn2C)c1 [Compound 380, (R)-1-methyl-N-(5-(4-methylpyridin-2-yl)-2,3-dihydro-1H-inden-1-yl)-1H-pyrazole-5-carboxamide]
CDMF75 IC15: 2.2 µM
IC50: 10.3 µM

Cc1cc(C(=O)N[C@@H]2CCc3cc(-c4noc(C(F)F)n4)ccc32)ncn1 [Compound 683, (R)-N-(5-(5-(difluoromethyl)-1,2,4-oxadiazol-3-yl)-2,3-dihydro-1H-inden-1-yl)-6-methylpyrimidine-4-carboxamide]
CDMF75 IC15: 1.1 µM
IC50: 4.6 µM

Cc1cc(C(=O)NC2CCc3cc(-c4cc(C(F)F)on4)ccc32)ccn1 (stereo not drawn) [Compound 168, N-(5-(5-(difluoromethyl)isoxazol-3-yl)-2,3-dihydro-1H-inden-1-yl)-2-methylisonicotinamide]
CDMF75 IC15: 1.1 µM
IC50: 3.8 µM

CC(=O)N[C@@H]1CCc2cc(-c3noc(C4CC4)n3)ccc21 [Compound 419, (R)-N-(5-(5-cyclopropyl-1,2,4-oxadiazol-3-yl)-2,3-dihydro-1H-inden-1-yl)acetamide]
CDMF75 IC15: 1.2 µM
IC50: 4.7 µM

COCc1nc(-c2ccc3c(c2)CC[C@H]3NC(=O)c2cccc(CO)c2)no1 [Compound 669, (R)-3-(hydroxymethyl)-N-(5-(5-(methoxymethyl)-1,2,4-oxadiazol-3-yl)-2,3-dihydro-1H-inden-1-yl)benzamide]
CDMF75 IC15: 0.5 µM
IC50: 2.3 µM

Cc1nc(-c2ccc3c(c2)CCC3NC(=O)Nc2ccncc2)no1 (stereo not drawn) [Compound 85, 1-(5-(5-methyl-1,2,4-oxadiazol-3-yl)-2,3-dihydro-1H-inden-1-yl)-3-(pyridin-4-yl)urea]
CDMF75 IC15: 5.5 µM
IC50: 24.1 µM

CCc1nc(-c2ccc3c(c2)CC[C@H]3NC(=O)C(F)F)no1 [Compound 436, (R)-N-(5-(5-ethyl-1,2,4-oxadiazol-3-yl)-2,3-dihydro-1H-inden-1-yl)-2,2-difluoroacetamide]
CDMF75 IC15: 0.6 µM
IC50: 2.1 µM

C[C@@H](O)c1nc(-c2ccc3c(c2)CC[C@H]3NC(=O)c2cnn(C)c2)no1 [Compound 550, N-{(1R)-5-[5-((1R)-1-hydroxyethyl)(1,2,4-oxadiazol-3-yl)]indanyl}(1-methylpyrazol-4-yl)carboxamide]
CDMF75 IC15: 13.1 µM
IC50: 39.2 µM

CC(=O)N[C@@H]1CCc2cc(-c3noc(C)n3)ccc21 [Compound 407, (R)-N-(5-(5-methyl-1,2,4-oxadiazol-3-yl)-2,3-dihydro-1H-inden-1-yl)acetamide]
CDMF75 IC15: 3.2 µM
IC50: 13.8 µM

CCc1nc(-c2ccc3c(c2)CC[C@H]3NC(=O)c2cccc(C(=O)OC)c2)no1 [Compound 648, Methyl (R)-3-((5-(5-ethyl-1,2,4-oxadiazol-3-yl)-2,3-dihydro-1H-inden-1-yl)carbamoyl)benzoate]
CDMF75 IC15: 0.4 µM
IC50: 1.3 µM

Cc1cc(-c2ccc3c(c2)CC[C@H]3NC(=O)c2ccnn2C)cnn1 [Compound 384, (R)-1-methyl-N-(5-(6-methylpyridazin-4-yl)-2,3-dihydro-1H-inden-1-yl)-1H-pyrazole-5-carboxamide]
CDMF75 IC15: 39.2 µM
IC50: > 39.2 µM

O=C(N[C@@H]1CCc2cc(-c3noc(C(F)F)n3)ccc21)C1CCCO1 (stereo partly drawn) [Compound 293, N-((R)-5-(5-(difluoromethyl)-1,2,4-oxadiazol-3-yl)-2,3-dihydro-1H-inden-1-yl)tetrahydrofuran-2-carboxamide]
CDMF75 IC15: 20.4 µM
IC50: > 39.2 µM

O=C(N[C@@H]1CCc2cc(-c3noc(C4CC4)n3)ccc21)c1cnn(CCO)c1 [Compound 521, (R)-N-(5-(5-cyclopropyl-1,2,4-oxadiazol-3-yl)-2,3-dihydro-1H-inden-1-yl)-1-(2-hydroxyethyl)-1H-pyrazole-4-carboxamide]
CDMF75 IC15: 1.2 µM
IC50: 5 µM

Cc1cc(C(=O)NC2CCc3cc(-c4nc(C)no4)ccc32)ccn1 (stereo not drawn) [Compound 130, 2-methyl-N-(5-(3-methyl-1,2,4-oxadiazol-5-yl)-2,3-dihydro-1H-inden-1-yl)isonicotinamide]
CDMF75 IC15: 2.5 µM
IC50: 10.3 µM

Cc1nc(-c2ccc3c(c2)OC[C@H]3NC(=O)c2ccnc(CO)c2)no1 [Compound 719, (S)-2-(hydroxymethyl)-N-(6-(5-methyl-1,2,4-oxadiazol-3-yl)-2,3-dihydrobenzofuran-3-yl)isonicotinamide]
CDMF75 IC15: 0.8 µM
IC50: 3.7 µM

CCc1nc(-c2ccc3c(c2)CC[C@H]3NC(=O)[C@H]2CCC(=O)N2)no1 [Compound 335, (R)-N-((R)-5-(5-ethyl-1,2,4-oxadiazol-3-yl)-2,3-dihydro-1H-inden-1-yl)-5-oxopyrrolidine-2-carboxamide]
CDMF75 IC15: 19.1 µM
IC50: > 39.2 µM

CCc1nc(-c2ccc3c(c2)CC[C@H]3NC(=O)OCC2CN(C(N)=O)C2)no1 [Compound 362, (1-carbamoylazetidin-3-yl)methyl (R)-(5-(5-ethyl-1,2,4-oxadiazol-3-yl)-2,3-dihydro-1H-inden-1-yl)carbamate]
CDMF75 IC15: 1.9 µM
IC50: 6.6 µM

CCc1nc(-c2ccc3c(c2)CC[C@H]3NC(=O)c2cocn2)no1 [Compound 587, (R)-N-(5-(5-ethyl-1,2,4-oxadiazol-3-yl)-2,3-dihydro-1H-inden-1-yl)oxazole-4-carboxamide]
CDMF75 IC15: 2.5 µM
IC50: 12.9 µM

Cn1nnc(C(=O)N[C@@H]2COc3cc(-c4noc(C5CC5)n4)ccc32)n1 [Compound 235, (S)-N-(6-(5-cyclopropyl-1,2,4-oxadiazol-3-yl)-2,3-dihydrobenzofuran-3-yl)-2-methyl-2H-tetrazole-5-carboxamide]
CDMF75 IC15: 1.2 µM
IC50: 4.8 µM

Cc1nc(C(=O)NC2CCc3cc(-c4noc(C(F)F)n4)ccc32)c(C)o1 (stereo not drawn) [Compound 22, N-(5-(5-(difluoromethyl)-1,2,4-oxadiazol-3-yl)-2,3-dihydro-1H-inden-1-yl)-2,5-dimethyloxazole-4-carboxamide]
CDMF75 IC15: 5.5 µM
IC50: 28.2 µM

Cc1cc(C(=O)NC2CCc3cc(-c4noc(C(F)F)n4)ccc32)cc(C)n1 (stereo not drawn) [Compound 24, N-(5-(5-(difluoromethyl)-1,2,4-oxadiazol-3-yl)-2,3-dihydro-1H-inden-1-yl)-2,6-dimethylisonicotinamide]
CDMF75 IC15: 2.1 µM
IC50: 8 µM

CCc1nc(-c2ccc3c(c2)CC[C@H]3NC(=O)c2cnn(CC(O)CO)c2)no1 (stereo partly drawn) [Compound 485, 1-(2,3-dihydroxypropyl)-N-((R)-5-(5-ethyl-1,2,4-oxadiazol-3-yl)-2,3-dihydro-1H-inden-1-yl)-1H-pyrazole-4-carboxamide]
CDMF75 IC15: 1.2 µM
IC50: 4.1 µM

[2H]C([2H])([2H])c1noc(-c2ccc3c(c2)OC[C@H]3NC(=O)c2nnn(C)n2)n1 [Compound 342, (S)-2-methyl-N-(6-(3-(methyl-d3)-1,2,4-oxadiazol-5-yl)-2,3-dihydrobenzofuran-3-yl)-2H-tetrazole-5-carboxamide]
CDMF75 IC15: 8.0 µM
IC50: > 39.2 µM
